{"source": "paper PMC3486420", "about": "“In Vitro and In Vivo Characterizations of Chiglitazar, a Newly Identified PPAR Pan-Agonist” (PPAR Research, 2012)", "key": {"3T3-L1 cells": {"tested_on": "3T3-L1 cells", "assay": "Gene expression by RT-PCR in 3T3-L1 cells", "assay_type": "cell-based, mouse", "settings": "48 h, 10 μM rosiglitazone, 10 μM chiglitazar, vs vehicle", "source_text": "cDNAs for human retinoid X receptor (hRXR), PPARα, PPARγ, and PPARδ were obtained by reverse transcriptase polymerase chain reaction (RT-PCR) from human liver or adipose tissues. Amplified cDNAs were cloned into pcDNA3.1 expression vector (Invitrogen, Carlsbad, CA, USA). The integrity and fidelity of all constructs made were verified by DNA sequencing. Luciferase reporter plasmids, ACOX promoter for PPARγ and pHD(X3)-luc for PPARα, were kind gifts of Drs. TM McIntyre (University of Utah, USA) and RA Rachubinski (University of Alberta, Canada), respectively. PPRE-luc for PPARδ was constructed based on the previous report by insertion of the annealed oligonucleotides having four copies of the CYP4A6 PPRE (4 × […]) into the upstream of the luciferase coding sequence in pGL3-promoter vector (Promega, Madison, WI, USA). pCMVβGal was purchased from Clontech (Palo Alto, CA, USA). The mouse 3T3-L1 preadipocyte cell line, skeletal muscle C2C12 cell line, and macrophage RAW267.4 cell line and the human osteosarcoma U2OS cell line were obtained from the American Type Culture Collection (ATCC, Rockville, MD, USA). […]\nTotal RNA was extracted from cells or tissues with an RNeasy minikit (Qiagen, Valencia, CA, USA). […] PCR products were analyzed by electrophoresis on a 1.5% agarose gel stained with ethidium bromide. […]"}, "C2C12 cells": {"tested_on": "C2C12 cells", "assay": "Gene expression by RT-PCR in C2C12 cells", "assay_type": "cell-based, mouse", "settings": "48 h, 10 μM chiglitazar, 50 μM WY14643, 5 μM 2-Bro, compared with rosiglitazone 10 μM", "source_text": "(§1) cDNAs for human retinoid X receptor (hRXR), PPARα, PPARγ, and PPARδ were obtained by reverse transcriptase polymerase chain reaction (RT-PCR) from human liver or adipose tissues. Amplified cDNAs were cloned into pcDNA3.1 expression vector (Invitrogen, Carlsbad, CA, USA). The integrity and fidelity of all constructs made were verified by DNA sequencing. Luciferase reporter plasmids, ACOX promoter for PPARγ and pHD(X3)-luc for PPARα, were kind gifts of Drs. TM McIntyre (University of Utah, USA) and RA Rachubinski (University of Alberta, Canada), respectively. PPRE-luc for PPARδ was constructed based on the previous report by insertion of the annealed oligonucleotides having four copies of the CYP4A6 PPRE (4 × […]) into the upstream of the luciferase coding sequence in pGL3-promoter vector (Promega, Madison, WI, USA). pCMVβGal was purchased from Clontech (Palo Alto, CA, USA). The mouse 3T3-L1 preadipocyte cell line, skeletal muscle C2C12 cell line, and macrophage RAW267.4 cell line and the human osteosarcoma U2OS cell line were obtained from the American Type Culture Collection (ATCC, Rockville, MD, USA). The human hepatoma SMMC-7721 cell line was obtained from the Cell Culture Center of Chinese Academy of Medical Sciences (Beijing, China). Cell lines were cultured in medium of DMEM (3T3-L1, C2C12, and SMMC-7721), RPMI 1640 (RAW267.4), or McCoy's 5A (U2OS), containing 10% fetal bovine serum (FBS), 50 μg/mL streptomycin, and 50 units/mL penicillin at 37°C in a humidified incubator with 5% CO2.\nTotal RNA was extracted from cells or tissues with an RNeasy minikit (Qiagen, Valencia, CA, USA). The first-strand cDNA was synthesized using the oligo(dT) primers, followed by using SuperScript II reverse transcriptase (Invitrogen) according to the manufacturer's instructions. […] PCR products were analyzed by electrophoresis on a 1.5% agarose gel stained with ethidium bromide. […]"}, "SMMC-7721 cells": {"tested_on": "SMMC-7721 cells", "assay": "Gene expression by RT-PCR in SMMC-7721 cells", "assay_type": "cell-based, human", "settings": "48 h, 10 μM rosiglitazone, 10 μM chiglitazar", "source_text": "as §1\nTotal RNA was extracted from cells or tissues with an RNeasy minikit (Qiagen, Valencia, CA, USA). The first-strand cDNA was synthesized using the oligo(dT) primers, followed by using SuperScript II reverse transcriptase (Invitrogen) according to the manufacturer's instructions. The PCR amplifications were performed in 10 μL of reaction mixture volume containing 0.8 μL of cDNA, 10 mM Tris-HCl (pH 8.3), 50 mM KCl, 1.5 mM MgCl2, 0.1% Triton X-100, 0.2 mM deoxynucleotide triphosphates, 0.4 μM primers, and 0.25 U of Taq polymerase (TaKaRa Biotechnology Co., Ltd, China). Taq DNA polymerase was added to each tube after a treatment of 2 min at 94°C. This was followed by 22–30 cycles of denaturation (23 s at 94°C), annealing (20 s at 55°C), extension (30 s at 72°C), and a final extension step of 2 min. PCR products were analyzed by electrophoresis on a 1.5% agarose gel stained with ethidium bromide.\nFigure 1 In vitro regulation of gene expression by chiglitazar. (a) Endogenous expression of individual PPAR subtypes in cell lines. […]. The expression change of referred genes induced by different compounds was normalized against internal control (36B4 or GAPDH) and then compared with vehicle control treatment. The data shown are averaged from 3 independent experiments."}, "PPARδ": {"target": "T1, PPARδ (Homo sapiens, UniProt Q03181)", "T1 construct": "expressed in transfected cells; host or cells: SMMC-7721 or U2OS", "T1 sequence (Q03181 1-441)": "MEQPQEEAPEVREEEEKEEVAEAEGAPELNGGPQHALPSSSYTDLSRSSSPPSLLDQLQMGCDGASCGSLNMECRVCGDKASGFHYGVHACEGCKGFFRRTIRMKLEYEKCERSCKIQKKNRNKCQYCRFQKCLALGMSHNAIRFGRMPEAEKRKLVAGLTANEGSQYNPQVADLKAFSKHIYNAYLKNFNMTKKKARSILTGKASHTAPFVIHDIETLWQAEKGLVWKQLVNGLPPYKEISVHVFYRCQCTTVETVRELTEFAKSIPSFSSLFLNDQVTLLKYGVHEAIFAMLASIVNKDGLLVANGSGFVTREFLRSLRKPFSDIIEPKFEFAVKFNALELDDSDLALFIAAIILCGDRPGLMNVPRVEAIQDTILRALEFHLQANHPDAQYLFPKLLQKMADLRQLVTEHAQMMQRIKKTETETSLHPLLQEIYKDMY", "T1 sequence (P19793 1-462 partner)": "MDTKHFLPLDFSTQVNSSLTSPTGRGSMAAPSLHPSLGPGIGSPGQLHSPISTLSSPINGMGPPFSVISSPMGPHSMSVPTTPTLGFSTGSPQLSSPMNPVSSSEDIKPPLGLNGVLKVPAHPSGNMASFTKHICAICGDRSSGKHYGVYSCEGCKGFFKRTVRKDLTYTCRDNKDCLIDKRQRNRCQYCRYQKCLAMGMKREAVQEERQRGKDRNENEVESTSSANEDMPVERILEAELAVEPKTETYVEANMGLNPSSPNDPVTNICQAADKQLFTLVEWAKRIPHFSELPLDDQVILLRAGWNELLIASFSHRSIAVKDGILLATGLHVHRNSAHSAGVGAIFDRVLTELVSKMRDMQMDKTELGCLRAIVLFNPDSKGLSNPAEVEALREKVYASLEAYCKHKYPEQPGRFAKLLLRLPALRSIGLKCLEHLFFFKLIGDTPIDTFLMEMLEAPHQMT", "assay": "PPARδ transactivation reporter gene assay in SMMC-7721 cells", "assay_type": "cell-based", "settings": "SMMC-7721 cells"}, "PPARγ": {"target": "T2, PPARγ (Homo sapiens, UniProt P37231)", "T2 construct": "expressed in transfected cells; host or cells: SMMC-7721 or U2OS", "T2 sequence (P37231 1-505)": "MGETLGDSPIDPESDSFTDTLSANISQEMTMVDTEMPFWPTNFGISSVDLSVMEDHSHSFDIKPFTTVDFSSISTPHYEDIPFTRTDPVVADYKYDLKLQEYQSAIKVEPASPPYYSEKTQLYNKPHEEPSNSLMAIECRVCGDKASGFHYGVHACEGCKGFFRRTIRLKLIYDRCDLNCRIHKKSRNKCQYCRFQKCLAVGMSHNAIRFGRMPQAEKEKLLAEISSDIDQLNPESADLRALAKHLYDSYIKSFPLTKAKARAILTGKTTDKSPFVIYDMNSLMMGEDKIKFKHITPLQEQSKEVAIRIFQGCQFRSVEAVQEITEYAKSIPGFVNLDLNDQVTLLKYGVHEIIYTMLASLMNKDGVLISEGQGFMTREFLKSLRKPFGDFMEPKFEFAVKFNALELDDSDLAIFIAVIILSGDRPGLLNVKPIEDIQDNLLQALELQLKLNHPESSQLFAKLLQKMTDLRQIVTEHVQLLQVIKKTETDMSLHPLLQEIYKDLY", "T2 sequence (P19793 1-462 partner)": "T1 sequence (P19793 1-462 partner)", "assay": "PPARγ transactivation reporter gene assay in U2OS cells", "assay_type": "cell-based"}}}
{"compound": "O=C(c1ccc(F)cc1)c1ccccc1NC(Cc1ccc(OCCn2c3ccccc3c3ccccc32)cc1)C(=O)O", "note": "(centres unmarked) [Chi, 2-[(2-(4-fluorobenzoyl)phenyl)amino]-3-[4-(2-carbazolylethoxy)-phenyl]-propionic acid]", "values": [{"measurement": "Expression of PPARγ downstream genes SREBP1 and adiponectin", "setting": "3T3-L1 cells", "value": "upregulated"}, {"measurement": "Expression of PPARα and/or PPARδ downstream genes CPT-1a and CPT-1b", "setting": "C2C12 cells", "value": "more significantly upregulated"}, {"measurement": "Expression of PPARγ downstream genes AOX, LIPC and HSL", "setting": "SMMC-7721 cells; vs vehicle", "value": "upregulated"}, {"measurement": "Expression of LDL receptor (LDLR)", "setting": "SMMC-7721 cells; 50 μM WY14643, 5 μM 2-Bro", "value": "kept no change"}, {"measurement": "EC50", "setting": "PPARδ; 24 h treatment, luciferase reporter, hRXR cotransfected, ia: inactive at 10 μM, read-out: PPARδ EC50", "value": "1700 ± 400", "unit": "nM"}, {"measurement": "PPARδ % Max", "setting": "PPARδ; max response compared with 2-Bro at 10 μM", "value": 123, "unit": "%"}, {"measurement": "EC50", "setting": "PPARγ; 24 h treatment, luciferase reporter, hRXR cotransfected, ia: inactive at 10 μM", "value": "80 ± 20", "unit": "nM"}, {"measurement": "PPARγ % Max", "setting": "PPARγ; max response compared with Ros at 1 μM", "value": 117, "unit": "%"}]}
